Test results reported in patent publication US9884012B2, “Use of PEDF-derived polypeptides for promoting muscle or tendon regeneration or arteriogenesis” (MacKay Memorial Hospital, priority 2012, dated 2018).

Experiments:
tibialis anterior muscle = test: hindlimb ischemia model, tibialis anterior muscle necrosis/fibrosis and centrally nucleated fibers; type: in vivo, C57BL/6 wild-type mice; conditions: two weeks after surgery, sustained-release formulation (Bolus: bolus 29-mer)
Procedure: The gracilis, adductor magnus, soleus, and tibialis muscles were fixed in 4% paraformaldehyde, dehydrated with graded ethanol series, and paraffinized. Fixed samples were de-paraffinized in xylene and rehydrated in a graded series of ethanol. Tissues were sliced into 5-μm sections. General histology was performed using H&E dye.
To ascertain the number of centrally nucleated muscle fibers, sections were stained with H&E and then photographed as described above. At least 100 stained fibers were randomly chosen from each photo. Muscle fibers were judged centrally nucleated if one or more nuclei were not located at the periphery of the fiber. The data were expressed as a % of the total number of muscle fibers counted. Results were evaluated from 6 sections per muscle section, and 10 mice at each group.
6-week-old female C57BL/6 wild-type mice were anesthetized by an intraperitoneal injection of a mixture of zoletil (6 mg/kg) and xylazine (3 mg/kg). Hair was removed from the hindquarter with a depilating cream. To establish hindlimb ischemia, unilateral external iliac and femoral arteries and veins were ligated, cut, and excised. After surgery, the mice were randomly assigned to several experimental groups (n=6, each group) and treated as follows. In the blank control group, the mice were treated with 50 μl of blank alginate gel, whereas in the bolus control group, the mice received the bolus formulation containing 29-mer. In the PEDF peptide/alginate gel treatment groups, the mice received 50 μl of the sustained-release formulation, which comprised either 29-mer, 24-mer, or 20-mer. Additionally, in a PEDF 18-mer control group, mice were treated with a sustained-release formulation containing a PEDF 18-mer peptide. Treatments were applied by way of a single intramuscular injection to the gracilis muscle immediately after femoral artery and vein excision operation. The incision was closed after the wound was irrigated with sterile saline.
In most hindlimb ischemia models, tissue necrosis generally occurs in the muscles below the knee. For example, tibialis anterior muscle, which is distant to the gracilis muscle where the treatment was administered, often undergoes extensive necrosis with regeneration after femoral artery excision. The intensity of Masson's trichrome blue color staining depended on the content of collagen fibers in the investigated tissue, and fibrosis is the result of necrosis. […] Results from representative samples are illustrated in FIGS. 4A and 4B.
Statistical analyses regarding injured area (necrotic area+fibrotic area) and numbers of centrally nucleated fibers were also performed at two weeks after the surgery, and the results were summarized in Table 2. The injured area is expressed as the percent of total stained area (%), and the centrally nucleated fibers is expressed as the total number of muscle fibers counted (%).

[1] = system: tendon stem cells (TSCs) in injured tendon; test: tendo Achilles injury model, in vivo TSC proliferation (nucleostemin staining); design: species or system Sprague-Dawley rats; conditions: injured tendon specimens of Example 4.1; sustained-release formulation (Bolus: bolus 29-mer)
Procedure: De-paraffinized tissue sections or 4% paraformaldehyde fixed rabbit tendon stem cells (TSCs) were blocked with 10% goat serum and 5% BSA for 1 hour. Double staining was done using primary antibodies against α-SMA (1:100 dilution), IB4 (5 μg/ml), Pax7 (1:100 dilution), nucleostemin (1:100 dilution) and type I collagen 1A1 (1:50) at 37° C. for 2 hours, followed by incubation with the appropriate rhodamine- or FITC-conjugated donkey IgG for 1 hour at RT. Nuclei were located by counterstaining with Hoechst 33258 for 7 minutes. Images were captured using a Zeiss epifluorescence microscope with a CCD camera.
To investigate the effects of the present PEDF peptides on tendon regeneration, a rat model with tendon injury was established as follows. Adult 10-week-old male Sprague-Dawley rats (total n=50; initial body weight=312±11 g) were anesthetized by an intraperitoneal injection of a xylazine (10 mg/kg). Then, the left tendo Achilles injury was created by full-thickness insertion of an 18-gauge needle through tendo Achilles 1 cm proximal to its insertion into the calcaneum. This created a horizontal (transaction) wound which was flanked by intact tendon tissue on both sides to prevent the retraction of severed ends.
The rats were randomly assigned (n=10/group) to five experimental groups and treated as follows. In the blank control group, the mice were treated with 150 μl of blank alginate gel. For the bolus control group, 150 μl of the bolus formulation (29-mer) was administered. […]
Specimens obtained from animals in different experimental groups of Example 4.1 were stained for nucleostemin (green) to investigate whether in vivo TSC proliferation would be promoted by the present sustained-release formulation during the tendon wound healing process. In quantitative analysis, ten randomly selected microscopic fields in each experimental group were photographed, and the percentage of nucleostemin-positive cells per total cells (counterstained by Hoechst 33258; blue) was calculated.

tendon stem cells (TSCs) = test: TSCs proliferation assay (BrdU labeling) in vitro; type: cell-based, New Zealand White rabbits; conditions: TSCs passage 4; 50 nM peptide, 5% FBS, 24 hours; BrdU pulse-labeling
Procedure: New Zealand White rabbits (6-8 months old, 3.0-4.0 kg) were used in this study. Achilles tendons were removed from the rabbits by cutting through their bony attachments. The tendon sheath was stripped away and the core portion of the tendons was minced into small fragments. Each 100 mg of fragment was then digested in a solution containing 3 mg/mL of type I collagenase and 4 mg/mL of dispase in 1 ml Dulbecco's Modified Eagle Medium (DMEM-high glucose) at 37° C. for 2 hours. The resultant cell suspension was centrifuged at 1,000 rpm for 15 minutes to obtain a cell pellet which was then resuspended in a growth medium consisting of DMEM supplemented with 10% heat inactivated fetal bovine serum (FBS), 100 μM 2-mercaptoethanol, and 100 U/ml penicillin and 100 μg/ml streptomycin. For passage, near-confluent cells were harvested with 0.25% trypsin and then 1×10^5 subcultured cells were further cultured in medium.
The TSCs at passage 4 were seeded at gelatin-coated slide in a 6-well plate at a density of 2×10^5 cells per well and cultured in growth medium (DMEM+10% FBS) for 24 hours before being replaced by a basal growth medium with 5% FBS only (control group) or with 5% FBS plus an additional 50 nM of PEDF-derived peptide (i.e., 29-mer, 24-mer, 20-mer, 18-mer, Mo 29-mer, or Mo 20-mer) for 24 hours. For BrdU labeling assay, BrdU (final concentration, 10 μM) was added to the culture for 4 hours. After fixing with 4% paraformaldehyde, cells were exposed to cold methanol for 2 minutes, and then treated with 1 N HCl at RT for 1 hour before performing immunofluorescence. The phenotype of passage 4 TSC was determined by immunocytochemistry of nucleostemin and type I collagen. Almost all of expanded TSCs were nucleostemin and type I collagen-double positive cells.
It has been reported that during the tendon healing process, tendon stem cells (TSCs) would proliferate and differentiate into tenocytes. To investigate whether present PEDF peptides would induce the proliferation of TSCs in vitro, tendons stem cells were isolated and cultured as described in the “Materials and Methods” section. The purity of TSCs was confirmed by a TSC marker, nucleostemin, as well as the expression of type I collagen by TSCs; together, these analyses indicated a TSC purity of near 100% (data not shown). The proliferation of TSCs was confirmed by BrdU pulse-labeling for 2 hours. Quantitative analysis of the level of BrdU-positive cells was performed as described above, and the results were summarized in Table 8.

Sequence | Centrally nucleated fibers (%) (tibialis anterior muscle) | Injured Area (%) (necrotic area + fibrotic area, percent of total stained area) (tibialis anterior muscle) | Nucleostemin Labeling Index (%) [1] [%] | BrdU Labeling Index (%) (tendon stem cells (TSCs))
SLGAEQRTESIIHRALYYDL [20-mer, synthetic peptide corresponding to residues 93-112 of human PEDF] | 61.2 ± 5.8 | 38.0 ± 5.2 | 15.0 ± 3.9 | 33.2 ± 6.6
SLGAEQRTESIIHRALYYDLISSP [24-mer, synthetic peptide corresponding to residues 93-116 of human PEDF] | 67.8 ± 5.3 | 36.8 ± 5.5 | 16.8 ± 4.2 | 29.0 ± 4.6
SLGAEQRTESIIHRALYYDLISSPDIHGT [29-mer, synthetic peptide corresponding to residues 93-121 of human PEDF] | 72.5 ± 5.2 | 39.5 ± 4.2 | 16.4 ± 2.9 | 31.8 ± 3.6
